Reference: patent US9145415B2, “Nitrogen-containing heterocyclic compound or salt thereof” (FUJIFILM Corporation, priority 2012, dated 2015)
Where two headings read alike, the source gives them in different places.

Assays:
[1] = target: T1, human FLT3 protein (FLT3 (WT)) (Homo sapiens, UniProt P36888); assay: FLT3 inhibition test (FLT3 enzyme inhibition, time-resolved fluorescence of substrate peptide phosphorylation); assay type: biochemical; settings: read-out: FLT3 (WT) enzyme inhibition activity
T1 construct: human FLT3 protein (intracellular region, 564 to 993 aa); GST; purchased Carna Biosciences; host or cells: baculovirus expression system
T1 sequence (P36888 564-993): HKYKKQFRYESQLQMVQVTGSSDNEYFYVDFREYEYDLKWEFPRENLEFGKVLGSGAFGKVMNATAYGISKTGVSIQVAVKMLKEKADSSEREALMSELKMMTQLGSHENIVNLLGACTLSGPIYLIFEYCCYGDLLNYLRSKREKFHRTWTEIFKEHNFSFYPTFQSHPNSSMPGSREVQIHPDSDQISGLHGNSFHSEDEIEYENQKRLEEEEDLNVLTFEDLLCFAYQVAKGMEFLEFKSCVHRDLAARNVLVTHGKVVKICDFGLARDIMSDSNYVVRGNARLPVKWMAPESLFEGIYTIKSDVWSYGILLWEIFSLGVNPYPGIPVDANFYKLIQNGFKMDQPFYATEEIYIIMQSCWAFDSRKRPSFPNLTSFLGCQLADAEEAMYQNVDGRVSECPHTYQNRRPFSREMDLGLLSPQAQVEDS
Experimental: The FLT3 inhibition test was performed for the compounds of the present invention by the method described below.
A reaction mixture in a volume of 9 μL containing the FLT3 protein and a test compound of a predetermined concentration (1.2 μg of FLT3, 100 mM HEPES, 10 mM MgCl2, 25 mM NaCl, 0.01% BSA, 1 mM DTT, pH 7.5) was left standing at 25° C. for 15 minutes. […] (Toray Industries), and 3 μL (final concentration 50 μM) of ATP (Sigma-Aldrich) were added to the reaction mixture, and the mixture was shaken for 2 minutes, and then further left standing at 25° C. for 30 minutes to allow the enzymatic reaction.

MV4-11 cells = assay: Leukemia cell proliferation inhibition test (ATPlite), MV4-11; assay type: cell-based; settings: Homo sapiens, read-out: MV4-11 cell proliferation inhibition effect
Experimental: (§1) A leukemia cell proliferation inhibition test was performed for the compounds of the present invention by using the leukemia cell strains MV4-11 (ATCC Number, CRL-9591) and Molm-13 (DSMZ Number, ACC554).
(§2) The leukemia cell proliferation inhibition test was performed by the method described below.
(§3) For the purpose of measuring proliferation inhibition attained with a compound, the total cell count was quantified on the basis of the total cellular ATP concentration using the ATPlite (PerkinElmer) reagent utilizing firefly luciferase. The Molm-13 or MV4-11 cells were added to the RPMI medium containing penicillin and streptomycin (penn/strep) and 10% FBS at a density of 2×10^5 cells/ml, and 50 μL (10,000 cells) of the cell suspension was inoculated to each well of a 96-well plate (Corning).
(§4) A serially diluted solution of a compound or 0.1% DMSO (solvent control) in a volume of 50 μL was added to the cells, and then the cells were cultured for 72 hours under the standard cell proliferation conditions (37° C., 5% CO2) to allow proliferation of the cells. In order to measure the proliferation of the total cells, equal volume of the ATPlite reaction mixture was added to each well in accordance with the instructions attached to ATPlite, and then luminescence count of the well was measured (relative light unit, RLU).
(§5) The RLU signal observed with the DMSO solvent control after 72 hours of the culture was defined as a signal indicating 0% inhibition, and the GI50 value for the proliferation inhibition corresponds to a concentration of a compound that provides 50% inhibition based on the proliferation of the total cells contained in the DMSO solvent control. Each data point was obtained from samples in duplicate. The GI50 values were calculated by the non-linear regression fitting (Fit Model (205)) according to a sigmoid dose-reaction equation using the XLfit software.

Molm-13 cells = assay: Leukemia cell proliferation inhibition test (ATPlite), Molm-13; assay type: cell-based; settings: Homo sapiens, read-out: MOLM13 cell proliferation inhibition effect
Experimental: as §1, §2, §3, §4, §5

[2] = GST-fused human FLT3 (564 to 993 aa), ATP 50 μM
[3] = MV4-11, 72 h, MV4-11, 72 hours culture, ATPlite, GI50 per method
[4] = MOLM-13, 72 h, Molm-13, 72 hours culture, ATPlite, GI50 per method

Row | Structure (SMILES) | IC50 [1, 2] [nM] | IC50 (MV4-11 cells; [3]) [nM] | IC50 (Molm-13 cells; [4]) [nM] | IC50 ([1]; FLT3 (WT)) [nM] | IC50 (MV4-11 cells; MV4-11, MV4-11 cell) [nM] | IC50 (Molm-13 cells; MOLM-13, MOLM13 cell) [nM]
1 | CCCN(C)c1nc(Nc2cccc(C#N)c2)ncc1C#CCCCNC(=O)[C@H](C)N(C)C(=O)/C=C/CN(C)C [Compound 9-3] | < 10 | < 10 | 10 to 100 |  |  | 
2 | CCCNc1nc(NCCc2ccncc2)ncc1C(=O)Nc1cccc(NC(=O)CNC(=O)/C=C/CN2CCOCC2)c1 [Compound 2-13] | < 10 | 10 to 100 | 10 to 100 |  |  | 
3 | CNc1nc(Nc2ccc(F)cc2)ncc1C#C[C@@H]1CCC[C@H](NC(=O)[C@H](C)N(C)C(=O)/C=C/CN(C)C)C1 [Compound 21-41] |  |  |  | < 10 | < 10 | < 10
4 | CCCNc1nc(Nc2cnc3c(cnn3C)c2)ncc1C#CCCCNC(=O)[C@H](C)N(C)C(=O)/C=C/CN(C)C [Compound 22-27] |  |  |  | < 10 | < 10 | < 10
5 | CCCNc1nc(Nc2ccc(C(N)=O)cc2)ncc1C(=O)Nc1cccc(NC2CCCN(C(=O)/C=C/CN(C)C)CC2)c1 (stereo not shown) [Compound 3-21] | < 10 | 100 to 1000 | 100 to 1000 |  |  | 
6 | C=CC(=O)N(C)CC(=O)NCCCNC(=O)c1cnc(Nc2ccc(C(N)=O)cc2)nc1NCCC [Compound 5-2] | < 10 | 10 to 100 | 10 to 100 |  |  | 
7 | COc1ccc(Nc2nc(NC3CC3)ncc2C#CCCCNC(=O)[C@H](C)N(C)C(=O)/C=C/CN(C)C)cn1 [Compound 22-24] |  |  |  | 10 to 100 | 10 to 100 | 10 to 100
8 | CCCNc1nc(Nc2cc(F)c3c(c2)c(N(C)C)nn3C)ncc1C#CCCCNC(=O)[C@H](C)N(C)C(=O)/C=C/CN(C)C [Compound 22-13] |  |  |  | 10 to 100 | 100 to 1000 | 10 to 100
9 | COc1nc(Nc2cccc(F)c2)ncc1C#C[C@@H]1CCC[C@H](NC(=O)[C@H](C)N(C)C(=O)/C=C/CN(C)C)C1 [Compound 15-4] | < 10 | < 10 | < 10 |  |  | 
10 | CCCNc1nc(Nc2ccc(C(N)=O)cc2)ncc1C(=O)Nc1cccc(NC(=O)[C@H](C)N(C)C(=O)/C=C/CN(C)CCO)c1 [Compound 4-9] | < 10 | < 10 | < 10 |  |  | 
11 | CCCNc1nc(Nc2cccc(C(F)(F)F)c2)ncc1C#CCCCNC(=O)[C@H](C)N(C)C(=O)/C=C/CN(C)C [Compound 11-11] | < 10 | 10 to 100 | 10 to 100 |  |  | 
12 | CCCNc1nc(Nc2ccc(C(N)=O)cc2)ncc1-c1cccc(CCNC(=O)CNC(=O)/C=C/CN(C)C)c1 [Compound 16-1, (E)-4-((5-(3-(2-(2-(4-(dimethylamino)-2-butenamido)actamido)ethyl)phenyl)-4-(propylamino)pyrimidin-2-yl)amino)benzamide] | < 10 | 10 to 100 | 100 to 1000 |  |  | 
13 | C=CC(=O)NCC(=O)Nc1cccc(C#Cc2cnc(Nc3ccc(C(N)=O)cc3)nc2NCCC)c1 [Compound 8-3] | < 10 | < 10 | 10 to 100 |  |  | 
14 | CCCNc1nc(Nc2ccc(F)nc2)ncc1C#C[C@@H]1CCC[C@H](NC(=O)[C@H](C)N(C)C(=O)/C=C/CN(C)C)C1 [Compound 13-5] | < 10 | < 10 | < 10 |  |  | 
15 | CCCNc1nc(Nc2cncc(F)c2)ncc1C#CCCCNC(=O)[C@H](C)N(C)C(=O)/C=C/CN(C)C [Compound 22-8] |  |  |  | < 10 | < 10 | 10 to 100
16 | CCCNc1nc(Nc2ccc(C#N)c(F)c2)ncc1C#CCCCNC(=O)[C@H](C)N(C)C(=O)/C=C/CN(C)C [Compound 9-25] | < 10 | < 10 | < 10 |  |  | 
17 | CCCOc1nc(Nc2cccc(F)c2)ncc1C#C[C@@H]1CCC[C@H](NC(=O)[C@H](C)N(C)C(=O)/C=C/CN(C)C)C1 [Compound 21-52] |  |  |  | < 10 | < 10 | < 10
18 | C[C@@H](C(=O)NCCCC#Cc1cnc(Nc2ccc(C#N)cc2)nc1NC1CCC1)N(C)C(=O)/C=C/CN(C)C [Compound 10-47] | < 10 | < 10 | < 10 |  |  | 
19 | CCCNc1nc(Nc2ccc(C(N)=O)cc2)ncc1C(=O)Nc1cccc(NC(=O)C(C)(C)NC(=O)/C=C/CN(C)C)c1 [Compound 3-13] | < 10 | 10 to 100 | 10 to 100 |  |  | 
20 | CCCN(CCC)c1nc(Nc2ccc(C#N)cc2)ncc1C#CCCCNC(=O)[C@H](C)N(C)C(=O)/C=C/CN(C)C [Compound 10-16] | < 10 | < 10 | < 10 |  |  | 
21 | CCCNc1nc(NCCc2ccncc2)ncc1C(=O)Nc1cccc(NC(=O)C(C)(C)NC(=O)/C=C/CN(C)C)c1 [Compound 2-11] | < 10 | 10 to 100 | 10 to 100 |  |  | 
22 | CNc1nc(Nc2ccc(F)cc2)ncc1C#CCCCNC(=O)[C@@H]1CCN1C(=O)/C=C/CN(C)C [Compound 7-86, (S,E)-1-(4-(Dimethylamino)-2-butenoyl)-N-(5-(2-((4-fluorophenyl)amino)-4-(methylamino)pyrimidin-5-yl)-4-pentyn-1-yl)azetidine-2-carboxamide] | < 10 | < 10 | < 10 |  |  | 
23 | CNc1nc(Nc2cccc(F)c2)ncc1C#CCCCNC(=O)[C@@H]1C[C@H](O)CN1C(=O)/C=C/CN(C)C [Compound 7-74] | < 10 | < 10 | < 10 |  |  | 
24 | CCCNc1nc(Nc2cnc(NC)c(F)c2)ncc1C#CCCCNC(=O)[C@H](C)N(C)C(=O)/C=C/CN(C)C [Compound 21-14] | < 10 | 10 to 100 | 10 to 100 |  |  | 
25 | CCCNc1nc(Nc2ccc(C(N)=O)cc2)ncc1C(=O)NCCCN[C@@H]1CCCC[C@@H]1NC(=O)/C=C/CN(C)C [Compound 3-25] | < 10 |  |  |  |  | 
26 | CCCNc1nc(Nc2ccc(C#N)cc2)ncc1C#CCCCNC(=O)[C@@H](C)N(C)C(=O)/C=C/CN(C)C [Compound 7-32] |  | < 10 | < 10 |  |  | 
27 | CCCNc1nc(Nc2ccc(C#N)cc2)ncc1C#CCCCNC(=O)[C@H](C)N(C)C(=O)/C=C/CN(C)C [Compound 7-5, (S,E)-N-(1-((5-(2-((4-Cyanophenyl)amino)-4-(propylamino)pyrimidin-5-yl)-4-pentyn-1-yl)amino)-1-oxopropan-2-yl)-4-(dimethylamino)-N-methyl-2-butenamide] |  | < 10 | < 10 |  |  | 
28 | CCCNc1nc(Nc2ccc(C(N)=O)cc2)ncc1C(=O)NCCCNC1CCCC[C@@H]1NC(=O)/C=C/CN(C)C (stereo partly shown) [Compound 3-25] |  | 10 to 100 | 100 to 1000 |  |  | 
